Reference: US12264173B2 (GILEAD SCIENCES, INC., priority 2020, dated 2025)
Where two headings read alike, the source gives them in different places.

Assays:
Format in all cases: cell-based
RSV A2 = assay: RSV NHBE EC50 (RSV A2 antiviral assay in NHBE cells); conditions: Table 3, NHBE cells, RSV A2, 4 days, read-out: RSV NHBE EC50
How it was run: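 Primary bronchial epithelial cells attach overnight, receive 3-fold serial compound dilutions, and are infected with RSV A2 at 1×10^4.5 tissue culture infectious doses/mL. Protection from virus-induced cell death is scored by luminescent viability assay after 4 days.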

HRV16 = HRV16 HeLa EC50 (cytopathic effect in H1-HeLa cells)
How it was run: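 H1-HeLa cells seeded one day before, given 3-fold serial compound dilutions in triplicate just prior to infection with pre-titrated virus. Incubated 96 h at 33 °C/5% CO2; protection from cytopathic effect read as viability by CellTiter-Glo luminescence, normalised to infected untreated (0%) and uninfected (100%) controls.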

DENV2 replicon = assay: DENV-2 Huh-7 Rep EC50 (replicon luminescence)
How it was run: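 Huh-7 cells carrying a DENV2 replicon, 5,000 cells/well, were incubated with dosed compounds for 48 h at 37° C. EnduRen live-cell substrate was added 1.5 h before luminescence reading. EC50 came from dose-response against DMSO-only wells.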

RSV strain A2 = assay: microbe, parasite or virus in culture; conditions: Table 3, HEp-2 cells, RSV A2, 4 days, read-out: RSV HEp-2 EC50
How it was run: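 Cytopathic-effect protection assay: HEp-2 cells (50,000/mL) infected with pre-titered RSV A2 onto 3-fold serial compound dilutions, incubated 4 days at 37° C. Cell viability read by CellTiter-Glo luminescence; percent inhibition derived against 0% and 100% virus-inhibition controls.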

[1] = human respiratory syncytial virus, NHBE, 96 h
[2] = 96 h, Table 3; H1-HeLa cells, 96 h; read-out: HRV16 HeLa EC50
[3] = Dengue virus, DENV2, Huh-7, 48 h, read-out: DENV-2 REP Huh7 EC50
[4] = human respiratory syncytial virus, HEp-2, 96 h
[5] = Table 3; H1-HeLa cells, 96 h; read-out: HRV16 HeLa EC50
[6] = Table 3, Huh-7 DENV2 replicon cells, 48 hours, read-out: DENV-2 REP Huh7 EC50

Row | Structure (SMILES) | EC50 (RSV A2; [1]) [nM] | EC50 (HRV16; [2]) [nM] | EC50 (DENV2 replicon; [3]) [nM] | EC50 (RSV strain A2; [4]) [nM] | EC50 (RSV A2) [nM] | EC50 (HRV16; [5]) [nM] | EC50 (DENV2 replicon; [6]) [nM] | EC50 (RSV strain A2) [nM] | EC50 (DENV2 replicon; Dengue virus, DENV2, Huh-7, 48 h, read-out: DENV-2 REP Huh7 EC50, Table 3, Huh-7 DENV2 replicon cells, 48 hours) [nM]
1 | COC(=O)[C@H](C)NP(=O)(OC[C@@]1(C#N)O[C@@H](c2ccc3c(N)ncnn23)[C@H](OC(=O)C(C)C)[C@@H]1OC(=O)C(C)C)Oc1ccccc1 (stereo partly drawn) [Example 138, (2R,3S,4S,5S)-5-(4-aminopyrrolo[2,1-f][1,2,4]triazin-7-yl)-2-cyano-2-((((((S)-1-methoxy-1-oxopropan-2-yl)amino)(phenoxy)phosphoryl)oxy)methyl)tetrahydrofuran-3,4-diyl bis(2-methylpropanoate)] | 17 | 101 | 5200 | 63 | – | – | – | – | –
2 | COC(=O)[C@H](C)NP(=O)(OC[C@@]1(C#N)O[C@@H](c2ccc3c(NC(C)=O)ncnn23)[C@H](OC(C)=O)[C@@H]1OC(C)=O)Oc1ccccc1 (stereo partly drawn) [Example 132, (2R,3S,4S,5S)-5-(4-acetamidopyrrolo[2,1-f][1,2,4]triazin-7-yl)-2-cyano-2-((((((S)-1-methoxy-1-oxopropan-2-yl)amino)(phenoxy)phosphoryl)oxy)methyl) tetrahydrofuran-3,4-diyl diacetate] | 145 | 3480 | 29400 | 434 | – | – | – | – | –
3 | CC(C)OC(=O)[C@H](C)N[P@](=O)(OC[C@@]1(C#N)O[C@@H](c2ccc3c(N)ncnn23)[C@H](OC(=O)C(C)C)[C@@H]1OC(=O)C(C)C)Oc1ccccc1 [Example 84, (2R,3S,4S,5S)-5-(4-aminopyrrolo[2,1-f][1,2,4]triazin-7-yl)-2-cyano-2-((((S)-(((S)-1-isopropoxy-1-oxopropan-2-yl)amino)(phenoxy)phosphoryl)oxy)methyl) tetrahydrofuran-3,4-diyl bis(2-methylpropanoate)] | 16 | 121 | 13000 | 58 | – | – | – | – | –
4 | CC(C)C(=O)OC1C(c2ccc3c(N)ncnn23)OC(C#N)(COP(=O)(NC(C)C(=O)OCC2CCC(N)CC2)Oc2ccccc2)C1OC(=O)C(C)C (single isomer, unassigned) [Example 209] | – | – | – | – | 168 | 8520 | 31400 | 1570 | –
5 | CCC(=O)O[C@H]1[C@H](c2ccc3c(N)ncnn23)O[C@](C#N)(COP(=O)(N[C@@H](C)C(=O)OC2COC2)Oc2ccccc2)[C@H]1OC(=O)CC (mixture of isomers) [Example 174, (2R,3S,4S,5S)-5-(4-aminopyrrolo[2,1-f][1,2,4]triazin-7-yl)-2-cyano-2-((((((S)-1-(oxetan-3-yloxy)-1-oxopropan-2-yl)amino)(phenoxy)phosphoryl)oxy)methyl) tetrahydrofuran-3,4-diyl dipropionate] | 20 | 97 | 8310 | 100 | – | – | – | – | –
6 | CC(=O)O[C@H]1[C@H](c2ccc3c(N)ncnn23)O[C@](C#N)(CO[P@@](=O)(N[C@@H](C)C(=O)OCC2CC2)Oc2ccccc2)[C@H]1OC(C)=O [Example 102] | – | – | – | – | 18 | 526 | 39100 | 178 | –
7 | COC(=O)[C@H](C)NP(=O)(N[C@@H](C)C(=O)OC)OC[C@@]1(C#N)O[C@@H](c2ccc3c(NC(=O)C(C)C)ncnn23)[C@H](OC(=O)C(C)C)[C@@H]1OC(=O)C(C)C [Example 150, ((2R,3S,4R,5S)-5-(4-isobutyramidopyrrolo[2,1-f][1,2,4]triazin-7-yl)-2-cyano-3,4-diisobutylatetetrahydrofuran-2-yl)methyl bis-methyl L-alaninate phosphate] | 70 | 3480 | – | 1400 | – | – | – | – | > 50000
8 | CCC(=O)O[C@H]1[C@H](c2ccc3c(N)ncnn23)O[C@](C#N)(CO[P@](=O)(N[C@@H](C)C(=O)OC2CCC2)Oc2ccccc2)[C@H]1OC(=O)CC [Example 196, (2R,3S,4S,5S)-5-(4-aminopyrrolo[2,1-f][1,2,4]triazin-7-yl)-2-cyano-2-((((R)-(((S)-1-cyclobutoxy-1-oxopropan-2-yl)amino)(phenoxy)phosphoryl)oxy)methyl) tetrahydrofuran-3,4-diyl dipropionate] | – | – | – | – | 27 | 96 | 1960 | 42 | –
